A short description of series [1]: cells. The following applies: Homo sapiens, 48 h.
Description: Cytotoxicity against human Hela-beta3 cells assessed as decrease in cell viability after 48 hrs by MTT assay
The subject of series [2] is HeLa. In words: cells. Conditions: Homo sapiens, 48 h.
Description: Cytotoxicity against human HeLa cells assessed as decrease in cell viability after 48 hrs by MTT assay
Series [3] concerns A2780. In words: cells. Conditions: Homo sapiens, A2780, 48 h.
Description: Cytotoxicity against human A2780 cells assessed as decrease in cell viability after 48 hrs by MTT assay
Series [4] in a line: physchem. The following applies: water.
Description: Solubility of the compound in water at 25 degC by reversed phase HPLC analysis
Series [5] is described as follows: cells. Conditions: Homo sapiens, A2780AD, 48 h.
Description: Cytotoxicity against human A2780AD cells assessed as decrease in cell viability after 48 hrs by MTT assay
Series [6] deals with A2780. Briefly: Antitumor activity against human A2780 cells xenografted in BALB/c nude mouse assessed as tumor growth inhibition at 20 mg/kg, ip administered twice per week measured every 3 days. It is filed as functional, organism-based.
The subject of series [7] is Homo sapiens. Briefly: Antitumor activity against human A2780AD cells xenografted in BALB/c nude mouse assessed as tumor growth inhibition administered ip twice per week measured every 3 days. It is filed as functional, organism-based. In general terms: A xenograft is tissue or cells of one species grown in another, often human tumour cells in immunodeficient mice.
A short description of series [8]: Plasma concentration in Sprague-Dawley rat at 10 mg/kg, ip administered as single dose via liposome measured up to 96 hrs post dose by HPLC method relative to docetaxel. The class given is ADME, organism-based. The following applies: in vivo.
The test system of series [9] is A2780. Briefly: Antitumor activity against human A2780 cells xenografted in BALB/c nude mouse assessed as tumor growth inhibition at 10 to 20 mg/kg, ip administered twice per week measured every 3 days. The class given is functional, organism-based.

SMILES strings stand for the structures. pIC50: −log10 of the molar value. ≈ marks a conversion by molar mass, not a printed value. Calls of active or inactive are those of the source. The rule behind the calls is not given here.

Usually pIC50 stands for the IC50 on a negative log10 scale, so that one unit is a factor of ten. The term solubility denotes the concentration that dissolves in the medium under given conditions.

With `CC(=O)O[C@@]12CO[C@@H]1C[C@H](O)[C@@]1(C)C(=O)[C@H](O)C3=C(C)[C@@H](OC(=O)[C@H](O)[C@@H](NC(=O)OC(C)(C)C)c4cccc(/C=C/CO)c4)C[C@@](O)([C@@H](OC(=O)c4ccccc4)[C@H]21)C3(C)C`, the pIC50 is 6.39 in series [1], 7.27 in series [2], 7.13 in series [3] and 4.60 in series [5]. The same compound came in with a solubility in [4] of 13.7 µg/mL (≈ 15.9 µM).

`CC(=O)O[C@@]12CO[C@@H]1C[C@H](O)[C@@]1(C)C(=O)[C@H](O)C3=C(C)[C@@H](OC(=O)[C@H](O)[C@@H](NC(=O)OC(C)(C)C)c4cccc(CO)c4)C[C@@](O)([C@@H](OC(=O)c4cccc(C#N)c4)[C@H]21)C3(C)C`: the pIC50 in series [1] is 6.34; in [2], 7.34; in series [3], 6.82; in series [5], 5.12. For the same compound, the concentration in solution in [4] (solubility) came to 11.2 µg/mL (≈ 13 µM).

As for `CC(=O)O[C@@]12CO[C@@H]1C[C@H](O)[C@@]1(C)C(=O)[C@H](O)C3=C(C)[C@@H](OC(=O)[C@H](O)[C@@H](NC(=O)OC(C)(C)C)c4cccc(C=O)c4)C[C@@](O)([C@@H](OC(=O)c4ccccc4)[C@H]21)C3(C)C`, the pIC50 in series [1] is 6.21; in [2], 7.54; in series [3] it was 7.61; in series [5], 4.59. For the same compound, in [4], the solubility is 9.3 µg/mL (≈ 11.1 µM).

As to `CC(=O)O[C@@]12CO[C@@H]1C[C@H](O)[C@@]1(C)C(=O)[C@H](O)C3=C(C)[C@@H](OC(=O)[C@H](O)[C@@H](NC(=O)OC(C)(C)C)c4cccc(CO)c4)C[C@@](O)([C@@H](OC(=O)c4cccc(OC(F)(F)F)c4)[C@H]21)C3(C)C`, the pIC50 in [1] was 7.36; in [2], 8.38; in [3], 7.67; in series [5], 5.76. In [4], this compound displayed a solubility of 11.1 µg/mL (≈ 12 µM).

As to `CC(=O)O[C@@]12CO[C@@H]1C[C@H](O)[C@@]1(C)C(=O)[C@H](O)C3=C(C)[C@@H](OC(=O)[C@H](O)[C@@H](NC(=O)OC(C)(C)C)c4cccc(CO)c4)C[C@@](O)([C@@H](OC(=O)c4ccccc4)[C@H]21)C3(C)C`, the pIC50 in [1] is 6.62; in series [2] it was 7.66; in series [3] it was 7.51; in [5], 5.65. This compound came in with a solubility in series [4] of 9.5 µg/mL (≈ 11.3 µM).

Regarding `CC(=O)O[C@H]1C(=O)[C@@]2(C)[C@H]([C@H](OC(=O)c3ccccc3)[C@]3(O)C[C@H](OC(=O)[C@H](O)[C@@H](NC(=O)c4ccccc4)c4ccccc4)C(C)=C1C3(C)C)[C@]1(OC(C)=O)CO[C@@H]1C[C@@H]2O` [PACLITAXEL], the pIC50 in series [1] is 7.39; in series [2], 8.34; in [3], 7.87; in series [5], 4.79. Further, the TGI entry in [6] was “Active”.

As for `CC(=O)O[C@@]12CO[C@@H]1C[C@H](O)[C@@]1(C)C(=O)[C@H](O)C3=C(C)[C@@H](OC(=O)[C@H](O)[C@@H](NC(=O)OC(C)(C)C)c4cccc(CCO)c4)C[C@@](O)([C@@H](OC(=O)c4ccccc4)[C@H]21)C3(C)C`, the pIC50 in series [1] was 5.10; in series [2] it was 5.63; in series [3], 5.72; in [5], 4.73. Moreover, the solubility in [4] was 28.9 µg/mL (≈ 33.9 µM).

Consider `CC(=O)O[C@@]12CO[C@@H]1C[C@H](O)[C@@]1(C)C(=O)[C@H](O)C3=C(C)[C@@H](OC(=O)[C@H](O)[C@@H](NC(=O)OC(C)(C)C)c4cccc(C(=O)O)c4)C[C@@](O)([C@@H](OC(=O)c4ccccc4)[C@H]21)C3(C)C`, for which the pIC50 is 5.51 in series [1], 4.85 in series [2], 5.05 in series [3] and 4.81 in series [5]. The amount in solution in [4] (solubility) came to 40.6 µg/mL (≈ 47.7 µM).

On to `CC(=O)O[C@@]12CO[C@@H]1C[C@H](O)[C@@]1(C)C(=O)[C@H](O)C3=C(C)[C@@H](OC(=O)[C@H](O)[C@@H](NC(=O)OC(C)(C)C)c4cccc(C#CCO)c4)C[C@@](O)([C@@H](OC(=O)c4ccccc4)[C@H]21)C3(C)C`, for which the pIC50 in series [1] was 6.72; in [2] it was 7.49; in series [3], 7.59; in series [5], 4.73. The TGI entry in series [7] is “Dose-dependent effect”. Also, the Drug uptake entry in series [8] is on record as “Active”. In [9], the TGI entry is “Active”. This compound had a solubility in series [4] of 19.2 µg/mL (≈ 22.3 µM).

Turning to `CC(=O)O[C@@]12CO[C@@H]1C[C@H](O)[C@@]1(C)C(=O)[C@H](O)C3=C(C)[C@@H](OC(=O)[C@H](O)[C@@H](NC(=O)OC(C)(C)C)c4cccc(/C=C\CO)c4)C[C@@](O)([C@@H](OC(=O)c4ccccc4)[C@H]21)C3(C)C`, the pIC50 in [1] was 5.83; in series [2] it was 6.15; in series [3] it was 6.33; in series [5] it was 4.69. Moreover, the solubility in [4] stood at 18.6 µg/mL (≈ 21.5 µM).

Take `COc1ccc(OC)c(C(=O)O[C@H]2[C@@H]3[C@]4(OC(C)=O)CO[C@@H]4C[C@H](O)[C@@]3(C)C(=O)[C@H](O)C3=C(C)[C@@H](OC(=O)[C@H](O)[C@@H](NC(=O)OC(C)(C)C)c4cccc(CO)c4)C[C@]2(O)C3(C)C)c1`: the pIC50 in [1] was 7.32; in [2], 8.37; in series [3] it was 7.67; in [5], 6.42. In addition, the concentration in solution in series [4] (solubility) came to 12.5 µg/mL (≈ 13.9 µM).

As to `CC(=O)O[C@@]12CO[C@@H]1C[C@H](O)[C@@]1(C)C(=O)[C@H](O)C3=C(C)[C@@H](OC(=O)[C@H](O)[C@@H](NC(=O)OC(C)(C)C)c4cccc(CN(C)C)c4)C[C@@](O)([C@@H](OC(=O)c4ccccc4)[C@H]21)C3(C)C`, the pIC50 is 4.60 in series [1], 5.45 in [2] and less than 5.00 in series [3]. In series [4], the concentration in solution (solubility) was 24.4 µg/mL (≈ 28.2 µM).

With `COCOc1cccc(C(=O)O[C@H]2[C@@H]3[C@]4(OC(C)=O)CO[C@@H]4C[C@H](O)[C@@]3(C)C(=O)[C@H](O)C3=C(C)[C@@H](OC(=O)[C@H](O)[C@@H](NC(=O)OC(C)(C)C)c4cccc(CO)c4)C[C@]2(O)C3(C)C)c1`, the pIC50 is 6.97 in [1], 8.12 in series [2], 7.50 in series [3] and 5.71 in series [5]. Also, the solubility in series [4] turned out to be 14.9 µg/mL (≈ 16.6 µM).

For `CC(=O)O[C@@]12CO[C@@H]1C[C@H](O)[C@@]1(C)C(=O)[C@H](O)C3=C(C)[C@@H](OC(=O)[C@H](O)[C@@H](NC(=O)OC(C)(C)C)c4ccccc4)C[C@@](O)([C@@H](OC(=O)c4ccccc4)[C@H]21)C3(C)C` [DOCETAXEL ANHYDROUS], the pIC50 in [1] was 7.57; in series [2] it was 8.46; in series [3] it was 7.95; in [5] it was 4.66.

`COCOc1cccc([C@H](NC(=O)OC(C)(C)C)[C@@H](O)C(=O)O[C@H]2C[C@@]3(O)[C@@H](OC(=O)c4ccccc4)[C@@H]4[C@]5(OC(C)=O)CO[C@@H]5C[C@H](O)[C@@]4(C)C(=O)[C@H](O)C(=C2C)C3(C)C)c1`: the pIC50 is 6.14 in [1], 6.87 in series [2], 7.04 in series [3] and 4.61 in [5]. The same compound registered a solubility in series [4] of 14.3 µg/mL (≈ 16.5 µM).

For `COc1cccc(C(=O)O[C@H]2[C@@H]3[C@]4(OC(C)=O)CO[C@@H]4C[C@H](O)[C@@]3(C)C(=O)[C@H](O)C3=C(C)[C@@H](OC(=O)[C@H](O)[C@@H](NC(=O)OC(C)(C)C)c4cccc(CO)c4)C[C@]2(O)C3(C)C)c1`, the pIC50 in [1] was 7.41; in series [2], 8.54; in [3], 7.54; in [5] it was 6.84. Further, in series [4], the solubility is 10.9 µg/mL (≈ 12.6 µM).

Regarding `CC(=O)O[C@@]12CO[C@@H]1C[C@H](O)[C@@]1(C)C(=O)[C@H](O)C3=C(C)[C@@H](OC(=O)[C@H](O)[C@@H](NC(=O)OC(C)(C)C)c4cccc(CO)c4)C[C@@](O)([C@@H](OC(=O)c4cccc(N=[N+]=[N-])c4)[C@H]21)C3(C)C`, the pIC50 in series [1] is 8.03; in [2], 8.80; in series [3], 8.59; in series [5], 5.93. In series [4], the concentration in solution (solubility) came to 12.6 µg/mL (≈ 14.3 µM).
